According to patent publication US9745305B2, “Modulators of methyl modifying enzymes, compositions and uses thereof” (Constellation Pharmaceuticals, Inc., priority 2013, dated 2017):

Tests used:
Y641N EZH2 = Y641N EZH2 (Homo sapiens, UniProt Q15910, Y641N); test: Assay for Y641N EZH2 (as the EZH2 assay, H3K27Me2 oligonucleosomes as substrate); assay type: biochemical; conditions: Y641N EZH2 mutant, reconstituted H3K27Me2 oligonucleosomes as substrate
Description: (§1) EZH2 Assay: Assays were carried out by mixing rPRC2 together with biotinylated oligonucleosome substrates in the presence of the radio-labeled enzyme co-factor, S-adenosyl-L-methionine (^3H SAM) (Perkin Elmer) and monitoring the enzymatically mediated transfer of tritiated methyl groups from ^3H SAM to histone lysine residues. The amount of resulting tritiated methyl histone product was measured by first capturing the biotinylated oligonucleosomes in streptavidin (SAV) coated FlashPlates (Perkin Elmer), followed by a wash step to remove unreacted ^3H SAM, and then counting on a TopCount NXT 384 well plate scintillation counter (Perkin Elmer). The final assay conditions for EZH2 were as follows: 50 mM Tris Buffer pH 8.5, 1 mM DTT, 69 μM Brij-35 detergent, 5.0 mM MgCl2, 0.1 mg/mL BSA, 0.2 μM ^3H SAM, 0.2 μM biotinylated oligonucleosomes, 3.6 μM H3K27me3 peptide and 2 nM EZH2.
(§2) Compound IC50 measurements were obtained as follows: Compounds were first dissolved in 100% DMSO as 10 mM stock solutions. Ten point dose response curves were generated by dispensing varying amounts of the 10 mM compound solution in 10 wells of the 384 well plate (Echo; Labcyte), pure DMSO was then used to backfill the wells to insure all wells have the same amount of DMSO. A 12.5 μL volume of the HMT enzyme, H3K27me3 peptide and oligonucleosome substrate in assay buffer was added to each well of the assay plate using a Multidrop Combi (ThermoFisher). Compounds were pre-incubated with the enzyme for 20 min, followed by initiation of the methyltransferase reaction by addition of 12.5 μL of ^3H SAM in assay buffer (final volume=25 μL). The final concentrations of compounds ranged from a top default concentration of 80 μM down to 0.16 μM in ten 2-fold dilution steps. Reactions were carried out for 60 minutes and quenched with 20 μL per well of 1.96 mM SAH, 50 mM Tris pH 8.5, 200 mM EDTA. Stopped reactions were transferred to SAV coated Flashplates (Perkin Elmer), incubated for 120 min, washed with a plate washer, and then read on the TopCount NXT (1.0 min/well) to measure the amount of methyl histone product formed during the reaction. The amount of methyl histone product was compared with the amount of product formed in the 0% and 100% inhibition control wells allowing the calculation of % Inhibition in the presence of the individual compounds at various concentrations. IC50's were computed using a 4 parameter fit non-linear curve fitting software package (XLFIT, part of the database package, ActivityBase (IDBS)) where the four parameters were IC50, Hill slope, pre-transitional baseline (0% INH), and post-transitional baseline (100% INH); with the latter two parameters being fixed to zero and 100%, respectively, by default.
Assay for Y641N EZH2 was performed as above using reconstituted H3K27Me2 oligonucleosomes as substrate.

[1] = system: H3K27me3 mark in Hela cells expressing wild type EZH2; test: H3K27me3 Alpha Hela Assay (AlphaLISA); assay type: cell-based; conditions: Homo sapiens, 72 hrs, read-out: H3K27me3_Alpha_HeLa (EC50)
Description: H3K27me3 Alpha Hela Assay (AlphaLISA). Ten different doses of each test compound (in a series of 3-fold dilutions) were plated in duplicate 384-well tissue culture treated plates (Catalog #781080; Greiner Bio One; Monroe, N.C.). Hela cells grown in culture were trypsinized and counted using a Countess® cell counter (Catalog # C10281; Life Technologies, Grand Island, N.Y.). Cell were diluted to 67,000 cells per mL in 10% DMEM (Catalog #10569-010 Life Technologies, Grand Island, N.Y.) and 15 μL (1,000 cells) were plated into each well using the Biotek MicroFlo™ Select Dispenser (BioTek Instruments, Inc. Vermont, USA),) of the 384-well plate. Plates were incubated at 37° C./5% CO2 for 72 hrs. One of the duplicate plates was processed for HeLa assay and the other for viability.
To the plate processed for AlphaLISA was added 5 μL per well Cell-Histone Lysis buffer (1×) (Catalog # AL009F1 Perkin Elmer; Waltham, Mass.) and the plate was incubated at RT for 30 minutes on a plate shaker with low speed (Model#4625-Q Thermo Scientific; Waltham, Mass.). Then, 10 μL per well Histone Extraction buffer (catalog # AL009F2; Perkin Elmer; Waltham, Mass.) was added and the plate further incubated at RT for 20 min on plate shaker with low speed. To each well was then added 10 μL per well of a 5× mix of anti-K27me3 acceptor beads plus Biotinylated anti-Histone H3 (C-ter) Antibody (diluted to 3 nM final) (Catalog #AL118 Perkin Elmer; Waltham, Mass.). Dilution of the acceptor beads and then anti-Histone H3 was with 1× Histone Detection buffer (Catalog # AL009F3 Perkin Elmer; Waltham, Mass.) which was produced diluted from the 10× stock provided. The plate was sealed with an aluminum plate sealer and incubated at 23° C. for 60 min. We then added 10 μL 5× solution of Streptavidin Donor beads (Catalog #6760002 Perkin Elmer; Waltham, Mass.) (20 μg/mL final in 1× Histone Detection Buffer), sealed the plate with Aluminum plate sealer and incubated at 23° C. for 30 min. The plates were then read using an EnVision-Alpha Reader (model #2104 Perkin Elmer; Waltham, Mass.).
Data from both assays was analyzed using Assay Assistant (Constellation Pharmaceuticals In-house product) and Activity Base (IDBS Ltd, Surrey, UK) template. Data files were imported to Assay Assistant and assay conditions were specified. A unique Analysis ID was created and the data files exported to Activity Base. An analysis template was created on Activity Base to measure dose-dependent inhibition of H3K27me3 mark and cell viability respectively. Readout of DMSO wells were used to normalize the data. Resulting curves were fitted using Activity base software Model 205 (IDBS Ltd, Surrey, UK). The data was checked for quality, validated and integrated in excel format using SARview (IDBS Ltd, Surrey, UK).

EZH2 = EZH2 (Homo sapiens, UniProt Q15910); test: EZH2 Assay (3H SAM methyl transfer, rPRC2, FlashPlate); assay type: biochemical; conditions: rPRC2, biotinylated oligonucleosomes, 0.2 μM 3H SAM, 2 nM EZH2
Sequence of EZH2 (Q15910 whole entry): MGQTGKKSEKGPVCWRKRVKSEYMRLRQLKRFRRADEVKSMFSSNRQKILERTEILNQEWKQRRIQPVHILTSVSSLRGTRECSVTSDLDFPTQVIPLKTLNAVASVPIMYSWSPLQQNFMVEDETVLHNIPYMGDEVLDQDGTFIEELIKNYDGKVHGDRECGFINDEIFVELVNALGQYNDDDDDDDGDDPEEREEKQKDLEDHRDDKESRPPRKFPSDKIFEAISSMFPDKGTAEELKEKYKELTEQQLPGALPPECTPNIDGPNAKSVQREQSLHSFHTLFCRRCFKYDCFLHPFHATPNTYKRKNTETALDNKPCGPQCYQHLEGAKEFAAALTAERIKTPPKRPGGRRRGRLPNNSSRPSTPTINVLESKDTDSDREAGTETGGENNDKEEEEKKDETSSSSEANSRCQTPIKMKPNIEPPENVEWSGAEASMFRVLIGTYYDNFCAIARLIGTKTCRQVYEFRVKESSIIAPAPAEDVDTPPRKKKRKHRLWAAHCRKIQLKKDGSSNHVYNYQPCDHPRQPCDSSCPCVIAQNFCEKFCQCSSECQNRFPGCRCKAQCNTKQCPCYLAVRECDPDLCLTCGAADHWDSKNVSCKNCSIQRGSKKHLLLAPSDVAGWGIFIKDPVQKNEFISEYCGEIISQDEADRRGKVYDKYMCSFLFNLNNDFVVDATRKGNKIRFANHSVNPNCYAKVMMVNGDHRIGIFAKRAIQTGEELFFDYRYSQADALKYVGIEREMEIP
Sequence of EZH2 (O75530 whole entry partner): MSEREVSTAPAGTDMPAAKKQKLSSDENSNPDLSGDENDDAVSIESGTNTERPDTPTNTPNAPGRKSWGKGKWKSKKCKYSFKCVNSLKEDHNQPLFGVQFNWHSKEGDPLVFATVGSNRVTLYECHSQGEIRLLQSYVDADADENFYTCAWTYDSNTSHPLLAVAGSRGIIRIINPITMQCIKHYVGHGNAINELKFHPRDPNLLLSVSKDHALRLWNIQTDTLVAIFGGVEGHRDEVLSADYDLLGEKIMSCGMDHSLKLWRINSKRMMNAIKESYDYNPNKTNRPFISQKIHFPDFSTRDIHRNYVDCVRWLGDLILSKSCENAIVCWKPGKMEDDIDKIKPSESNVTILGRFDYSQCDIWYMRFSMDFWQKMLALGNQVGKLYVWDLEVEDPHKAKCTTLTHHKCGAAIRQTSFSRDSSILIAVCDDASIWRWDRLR
Sequence of EZH2 (Q15022 whole entry partner): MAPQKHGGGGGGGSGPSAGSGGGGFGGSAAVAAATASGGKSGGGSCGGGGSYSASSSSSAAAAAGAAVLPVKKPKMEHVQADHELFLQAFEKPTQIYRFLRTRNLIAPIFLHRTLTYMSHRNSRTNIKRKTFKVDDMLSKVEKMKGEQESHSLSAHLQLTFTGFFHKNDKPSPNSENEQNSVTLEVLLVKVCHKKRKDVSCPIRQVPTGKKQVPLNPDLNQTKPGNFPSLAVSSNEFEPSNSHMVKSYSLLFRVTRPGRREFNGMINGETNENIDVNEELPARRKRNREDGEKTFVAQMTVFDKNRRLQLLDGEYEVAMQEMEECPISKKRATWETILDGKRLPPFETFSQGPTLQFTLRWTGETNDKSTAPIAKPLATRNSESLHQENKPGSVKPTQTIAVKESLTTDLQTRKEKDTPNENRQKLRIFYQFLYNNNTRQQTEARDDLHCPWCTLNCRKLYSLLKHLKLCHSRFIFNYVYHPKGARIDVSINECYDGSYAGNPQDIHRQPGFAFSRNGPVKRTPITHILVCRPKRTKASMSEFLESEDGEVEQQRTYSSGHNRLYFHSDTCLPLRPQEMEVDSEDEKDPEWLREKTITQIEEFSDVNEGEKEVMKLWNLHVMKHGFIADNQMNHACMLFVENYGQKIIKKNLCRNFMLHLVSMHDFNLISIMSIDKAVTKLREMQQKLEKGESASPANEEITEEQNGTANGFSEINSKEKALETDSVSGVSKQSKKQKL
Description: as §1, §2

Sequence of Y641N EZH2 (Q15910 whole entry Y641N): as the sequence (Q15910 whole entry) above, with Y641N counted along it
Sequence of Y641N EZH2 (O75530 whole entry partner): as the sequence (O75530 whole entry partner) above
Sequence of Y641N EZH2 (Q15022 whole entry partner): as the sequence (Q15022 whole entry partner) above

IC50 (Y641N EZH2) | EC50 [1] | IC50 (EZH2) | Compound
1000 to 10000 nM | < 400 nM | < 100 nM | COc1cc(C)[nH]c(=O)c1CNC(=O)c1c(C)c(C(C)C2CCN(C(=O)C(F)F)CC2)n2ncccc12 (centres unmarked) [Compound 138, 7-(1-(1-(2,2-difluoroacetyl)piperidin-4-yl)ethyl)-N-((4-methoxy-6-methyl-2-oxo-1,2-dihydropyridin-3-yl)methyl)-6-methylpyrrolo[1,2-b]pyridazine-5-carboxamide]
 | < 400 nM | < 100 nM | Cc1cc(C)c(CNC(=O)c2c(C)c(C(C)C3CCN(CC(C)(C)O)CC3)n3ncccc23)c(=O)[nH]1 (centres unmarked) [Compound 128, N-((4,6-dimethyl-2-oxo-1,2-dihydropyridin-3-yl)methyl)-7-(1-(1-(2-hydroxy-2-methylpropyl)piperidin-4-yl)ethyl)-6-methylpyrrolo[1,2-b]pyridazine-5-carboxamide]
 | 2000 to 10000 nM | < 100 nM | COc1cc(C)[nH]c(=O)c1CNC(=O)c1c(C)c(C(C)N(C)C)n2ncccc12 (centres unmarked) [Compound 130, 7-(1-(dimethylamino)ethyl)-N-((4-methoxy-6-methyl-2-oxo-1,2-dihydropyridin-3-yl)methyl)-6-methylpyrrolo[1,2-b]pyridazine-5-carboxamide]
< 100 nM | < 400 nM | < 100 nM | COc1cc(C)[nH]c(=O)c1CNC(=O)c1c(C)c(C(C)C2CCN(C(=O)C(F)(F)F)CC2)n2ncccc12 (centres unmarked) [Compound 139, N-((4-methoxy-6-methyl-2-oxo-1,2-dihydropyridin-3-yl)methyl)-6-methyl-7-(1-(1-(2,2,2-trifluoroacetyl)piperidin-4-yl)ethyl)pyrrolo[1,2-b]pyridazine-5-carboxamide]
100 to 1000 nM | < 400 nM | < 100 nM | COc1cc(C)[nH]c(=O)c1CNC(=O)c1c(C)c(C(C)C2CCN(CC(C)(C)F)CC2)n2ncccc12 (centres unmarked) [Compound 144, 7-(1-(1-(2-fluoro-2-methylpropyl)piperidin-4-yl)ethyl)-N-((4-methoxy-6-methyl-2-oxo-1,2-dihydropyridin-3-yl)methyl)-6-methylpyrrolo[1,2-b]pyridazine-5-carboxamide]
 | < 400 nM | < 100 nM | COc1cc(C)[nH]c(=O)c1CNC(=O)c1c(C)c(C(C)C2CCN(CC(C)(F)F)CC2)n2ncccc12 (centres unmarked) [Compound 143, 7-(1-(1-(2,2-difluoropropyl)piperidin-4-yl)ethyl)-N-((4-methoxy-6-methyl-2-oxo-1,2-dihydropyridin-3-yl)methyl)-6-methylpyrrolo[1,2-b]pyridazine-5-carboxamide]
1000 to 10000 nM | < 400 nM | < 100 nM | COc1cc(C)[nH]c(=O)c1CNC(=O)c1c(C)c(C(C)C2CCN(C(=O)C(C)(F)F)CC2)n2ncccc12 (centres unmarked) [Compound 135, 7-(1-(1-(2,2-difluoropropanoyl)piperidin-4-yl)ethyl)-N-((4-methoxy-6-methyl-2-oxo-1,2-dihydropyridin-3-yl)methyl)-6-methylpyrrolo[1,2-b]pyridazine-5-carboxamide]
< 100 nM | < 400 nM | < 100 nM | COc1cc(C)[nH]c(=O)c1CNC(=O)c1c(Cl)c(C(C)C2CCN(CC(C)(C)O)CC2)n2ncccc12 (centres unmarked) [Compound 142, 6-chloro-7-(1-(1-(2-hydroxy-2-methylpropyl)piperidin-4-yl)ethyl)-N-((4-methoxy-6-methyl-2-oxo-1,2-dihydropyridin-3-yl)methyl)pyrrolo[1,2-b]pyridazine-5-carboxamide]
 | < 400 nM | < 100 nM | COc1cc(C)[nH]c(=O)c1CNC(=O)c1c(C)c(C(C)C2CCN(C(=O)CC(F)(F)F)CC2)n2ncccc12 (centres unmarked) [Compound 137, N-((4-methoxy-6-methyl-2-oxo-1,2-dihydropyridin-3-yl)methyl)-6-methyl-7-(1-(1-(3,3,3-trifluoropropanoyl)piperidin-4-yl)ethyl)pyrrolo[1,2-b]pyridazine-5-carboxamide]
 | 400 to 2000 nM | < 100 nM | COc1cc(C)[nH]c(=O)c1CNC(=O)c1c(C)c(C(C)C2CCN(CCC(F)(F)F)CC2)n2ncccc12 (centres unmarked) [Compound 134, N-((4-methoxy-6-methyl-2-oxo-1,2-dihydropyridin-3-yl)methyl)-6-methyl-7-(1-(1-(3,3,3-trifluoropropyl)piperidin-4-yl)ethyl)pyrrolo[1,2-b]pyridazine-5-carboxamide]
< 100 nM | < 400 nM | < 100 nM | COc1cc(C)[nH]c(=O)c1CNC(=O)c1c(C)c(C(C)C2CCN(CC(F)(F)F)CC2)n2ncccc12 (centres unmarked) [Compound 133, N-((4-methoxy-6-methyl-2-oxo-1,2-dihydropyridin-3-yl)methyl)-6-methyl-7-(1-(1-(2,2,2-trifluoroethyl)piperidin-4-yl)ethyl)pyrrolo[1,2-b]pyridazine-5-carboxamide]
 | 2000 to 10000 nM | < 100 nM | COc1ccc2c(C(=O)NCc3c(C)cc(C)[nH]c3=O)c(C)c(C(C)C3CCN(CC(C)(C)O)CC3)n2n1 (centres unmarked) [Compound 127, N-((4,6-dimethyl-2-oxo-1,2-dihydropyridin-3-yl)methyl)-7-(1-(1-(2-hydroxy-2-methylpropyl)piperidin-4-yl)ethyl)-2-methoxy-6-methylpyrrolo[1,2-b]pyridazine-5-carboxamide]
1000 to 10000 nM | < 400 nM | < 100 nM | COc1cc(C)[nH]c(=O)c1CNC(=O)c1c(C)c(C(C)C2CCN(CC(C)(F)F)CC2)n2ccncc12 (centres unmarked) [Compound 140, 6-(1-(1-(2,2-difluoropropyl)piperidin-4-yl)ethyl)-N-((4-methoxy-6-methyl-2-oxo-1,2-dihydropyridin-3-yl)methyl)-7-methylpyrrolo[1,2-a]pyrazine-8-carboxamide]
 | < 400 nM | < 100 nM | COc1cc(C)[nH]c(=O)c1CNC(=O)c1c(C)c(C(C)C2CCN(C(=O)C(C)(C)F)CC2)n2ncccc12 (centres unmarked) [Compound 136, 7-(1-(1-(2-fluoro-2-methylpropanoyl)piperidin-4-yl)ethyl)-N-((4-methoxy-6-methyl-2-oxo-1,2-dihydropyridin-3-yl)methyl)-6-methylpyrrolo[1,2-b]pyridazine-5-carboxamide]
